Data published in patent publication US20220354860A1, “HETEROCYCLIC DERIVATIVES AND USE THEREOF” (Fochon Pharmaceuticals, Ltd., priority 2019, published 2022).

How the values were obtained:
URAT1 [1] = target: T1, URAT1 (Homo sapiens, UniProt Q96S37); assay: URAT1 inhibitor activity, 14C-uric acid uptake in HEK293-URAT1 cells; format: cell-based; conditions: URAT1 inhibition, 14C-Uric acid 5.0 μmol/L, 2 min
T1 sequence (Q96S37 1-553): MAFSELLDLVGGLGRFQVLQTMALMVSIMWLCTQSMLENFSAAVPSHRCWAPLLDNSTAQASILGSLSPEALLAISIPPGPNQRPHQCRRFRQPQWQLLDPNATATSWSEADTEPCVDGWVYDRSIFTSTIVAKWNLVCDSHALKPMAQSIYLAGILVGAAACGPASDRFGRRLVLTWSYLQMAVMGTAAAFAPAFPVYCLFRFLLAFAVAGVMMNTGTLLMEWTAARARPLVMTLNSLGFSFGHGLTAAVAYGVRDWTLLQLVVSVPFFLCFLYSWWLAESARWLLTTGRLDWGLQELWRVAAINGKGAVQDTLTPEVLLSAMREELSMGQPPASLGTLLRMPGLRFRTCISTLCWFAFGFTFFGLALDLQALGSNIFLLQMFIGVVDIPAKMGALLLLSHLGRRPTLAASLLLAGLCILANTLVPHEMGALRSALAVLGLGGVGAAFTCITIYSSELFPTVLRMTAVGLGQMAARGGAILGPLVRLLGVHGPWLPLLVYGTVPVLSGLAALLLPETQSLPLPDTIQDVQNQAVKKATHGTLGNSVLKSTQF
Experimental: The potency of the compounds of formula (I) as inhibitors of the URAT1 was determined as follow.
HEK293-URAT1 cell Lines were donated by Japan Fuji Biomedical Research Institute. Negative control cell of HEK293 (MOCK cells) which was transfected with pcDNA3.1 empty vector. HEK293-URAT1 cell lines and MOCK cell lines were cultured in complete growth medium consisting of DMEM supplemented with 10% FBS, penicillin and streptomycin.
Preparation of working solution: Each stock solutions was diluted to different concentrations (6, 20, 60, 200 and 600 μmol/L) with DMSO as 200× working solution, which was then diluted to 2× compound working solution with HBSS (Cl^− free) buffer. Radiolabeled substrate ^14C-Uric acid solution was diluted with HBSS (Cl^− free) buffer to obtain 2× working solution which was mixed with an equal volume of 2× compound working solution to obtain the mixture of radiolabeled substrate and compound working solution.
HER293-URAT1 and MOCK cells were seeded onto 24-well plates at the density of 1.5×10^6 cells per well. The cells were incubated at 37° C., 5% CO2 overnight. After cultured for approximately 2 to 3 days, cells were used for the experiments. The culture medium were removed from the wells, and cells were washed with HBSS (Cl^− free) and incubated in 37° C. HBSS (Cl^− free) for 10 min. HBSS was replaced with 500 μL of the mixture of radiolabeled substrate and compound working solution. The final concentration of ^14C-Uric acid in the assay was 5.0 μmol/L. Plates were incubated at 37° C., 5% CO2 for 2 min, and the reaction was stopped by the addition of pre-chilled HBSS (Cl^− free) by washing three times. 400 μL, NaOH (0.1 mmol/L) was added to lyse the cells and the cell lysate was collected to scintillation vials, and 3 ml scintillant (Aquasol-2, PerkinElmer) was added and after mixing completely, the radioactivity was counted by Tri-Carb 2910TR liquid scintillation counter. Each concentration of compounds, positive control and negative control were repeated in two wells (n=2). Inhibition % data were calculated using the formula:
Inhibition=[100×(U−U0)/(Uc−U0)]%, and analyzed using Prism5 software. • U0: Average of signals of MOCK cells; • Uc: Average of signals of radiolabeled substrate. The half inhibition concentration of the tested compounds to URAT1 were analyzed using Prism 5 software.

CYP2C9 = target: T2, CYP2C9 (Homo sapiens, UniProt P11712); assay: CYP inhibition assay in human liver microsomes; format: in vitro ADME; conditions: human liver microsomes 0.200 mg/mL, 37° C. for 10 minutes
T2 construct: conducted using human liver microsomes; from tissue; host or cells: human liver microsomes
Experimental: The CYP inhibition assay was conducted using human liver microsomes at 0.200 mg/mL with a marker substrate for CYP2C9. The substrate concentrations employed were similar to published Michaelis-Menten constants (Km) for each of the respective reactions. The test compounds were added at 8 concentrations (0, 0.0500, 0.150, 0.500, 1.50, 5.00, 15.0, and 50.0 μM). A known inhibitor for the isozyme, at a single concentration (3.00 μM) in duplicates, was selected as the positive control. The reaction in the presence of the organic solvent instead of test compounds served as vehicle control. The final content of organic solvent in all the reactions was up to 0.5% DMSO and 0.5% methanol.
Reactions were initiated by adding NADPH followed by incubation at 37° C. for 10 minutes. And reactions were terminated by adding a 2-fold volume ice-cold acetonitrile with internal standards. Samples were processed and analyzed by liquid chromatography tandem mass spectrometry (LC-MS/MS).The results are given in the Table 4.

URAT1 [2] = target: T1, URAT1; assay: URAT1 inhibitor activity, MDCK cells; format: cell-based; design: host or cells: MDCK; conditions: URAT1 inhibition

T2 sequence (P11712 whole entry): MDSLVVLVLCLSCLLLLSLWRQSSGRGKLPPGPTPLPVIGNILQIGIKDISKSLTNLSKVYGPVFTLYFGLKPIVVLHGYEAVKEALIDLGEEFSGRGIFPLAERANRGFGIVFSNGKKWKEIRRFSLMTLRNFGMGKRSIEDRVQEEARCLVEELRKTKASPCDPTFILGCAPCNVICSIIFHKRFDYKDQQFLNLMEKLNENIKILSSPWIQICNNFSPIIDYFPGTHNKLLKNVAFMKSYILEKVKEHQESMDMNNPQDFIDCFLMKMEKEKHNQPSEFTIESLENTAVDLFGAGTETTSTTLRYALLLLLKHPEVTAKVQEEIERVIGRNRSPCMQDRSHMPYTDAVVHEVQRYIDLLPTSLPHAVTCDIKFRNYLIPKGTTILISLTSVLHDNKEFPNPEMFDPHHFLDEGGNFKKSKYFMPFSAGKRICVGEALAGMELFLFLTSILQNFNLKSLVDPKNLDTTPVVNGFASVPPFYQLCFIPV

SMILES	IC50 (URAT1 [1]) [nM]	IC50 (CYP2C9) [nM]	IC50 (URAT1 [2]) [nM]
O=C(c1cc(Br)c(O)c(Br)c1)N1CCOc2cn[nH]c21 [Example 3, (3,5-dibromo-4-hydroxyphenyl)(5,6-dihydropyrazolo[4,3-b][1,4]oxazin-7(1H)-yl)methanone]	130	–	–
Cc1nn(C)c2c1OCCN2C(=O)c1cc(Br)c(O)c(Br)c1 [Example 10, (3,5-dibromo-4-hydroxyphenyl)(1,3-dimethyl-5,6-dihydropyrazolo[4,3-b] [1,4]oxazin-7(1H)-yl)methanone]	< 30	16200	85
Cn1ncc2c1N(C(=O)c1cc(Br)c(O)c(Br)c1)CC(C)(C)O2 [Example 12, (3,5-dibromo-4-hydroxyphenyl)(1,5,5-trimethyl-5,6-dihydropyrazolo[4,3-b] [1,4]oxazin-7(1H)-yl)methanone]	–	–	80
Cc1nn(C)c2c1OC(C)(C)CN2C(=O)c1cc(Br)c(O)c(Br)c1 [Example 13, (3,5-dibromo-4-hydroxyphenyl)(1,3,5,5-tetramethyl-5,6-dihydropyrazolo[4,3-b][1,4]oxazin-7(1H)-yl)methanone]	–	–	84
Cn1ncc2c1N(C(=O)c1cc(Cl)c(O)c(Cl)c1)CCO2 [Example 14, (3,5-dichloro-4-hydroxyphenyl)(1-methyl-5,6-dihydropyrazolo[4,3-b][1,4]oxazin-7(1H)-yl)methanone]	–	–	252
Cc1nn(C)c2c1O[C@@H](C)CN2C(=O)c1cc(Br)c(O)c(Br)c1 [Example 15, (S)-(3,5-dibromo-4-hydroxyphenyl) (1,3,5-trimethyl-5,6-dihydropyrazolo[4,3-b][1,4]oxazin-7(1H)-yl)methanone]	–	–	126
Cc1nn(C)c2c1OC1(CC1)CN2C(=O)c1cc(Br)c(O)c(Br)c1 [Example 17, (3,5-dibromo-4-hydroxyphenyl)(1′,3′-dimethyl-1′H-spiro[cyclopropane-1,5′-pyrazolo[4,3-b][1,4]oxazin]-7′(6′H)-yl)methanone]	–	10400	60
Cc1nn(C)c2c1O[C@H](C)CN2C(=O)c1cc(Br)c(O)c(Br)c1 [Example 18]	–	16000	37
Cn1cc2c(n1)N(C(=O)c1cc(Br)c(O)c(Br)c1)CCO2 [Example 19, (3,5-dibromo-4-hydroxyphenyl)(2-methyl-5,6-dihydropyrazolo[4,3-b][1,4]oxazin-7(2H)-yl)methanone]	339	–	–
O=C(c1cc(Br)c(O)c(Br)c1)N1CCOc2[nH]ncc21 [Example 20, (3,5-dibromo-4-hydroxyphenyl)(5,6-dihydropyrazolo[3,4-b][1,4]oxazin-4(1H)-yl)methanone]	235	–	–
Cc1nn(C)c2c1SCCN2C(=O)c1cc(Br)c(O)c(Br)c1 [Example 23, (3,5-dibromo-4-hydroxyphenyl)(1,3-dimethyl-5,6-dihydropyrazolo[4,3-b][1,4]thiazin-7(1H)-yl)methanone]	–	–	189

Results, then the compound that gave them:

IC50 (URAT1 [1]) [nM]	IC50 (CYP2C9) [nM]	IC50 (URAT1 [2]) [nM]	SMILES
62	15500	25	C[C@@H]1CN(C(=O)c2cc(Br)c(O)c(Br)c2)c2c(cnn2C)O1 [Example 1, (R)-(3,5-dibromo-4-hydroxyphenyl)(1,5-dimethyl-5,6-dihydropyrazolo[4,3-b][1,4]oxazin-7(1H)-yl)methanone]
69	> 50000	29	Cn1ncc2c1N(C(=O)c1cc(Br)c(O)c(Br)c1)CCO2 [Example 2, (3,5-Dibromo-4-hydroxyphenyl)(1-methyl-5,6-dihydropyrazolo[4,3-b][1,4]oxazin-7(1H)-yl)methanone]
40	18900	93	C[C@H]1CN(C(=O)c2cc(Br)c(O)c(Br)c2)c2c(cnn2C)O1 [Example 5, (S)-(3,5-dibromo-4-hydroxyphenyl) (1,5-dimethyl-5,6-dihydropyrazolo[4,3-b][1,4]oxazin-7(1H)-yl)methanone]
100	–	–	Cn1ncc2c1N(C(=O)c1cc(Br)c(O)c(Br)c1)CCC2 [Example 11, (3,5-dibromo-4-hydroxyphenyl)(1-methyl-1,4,5,6-tetrahydro-7H-pyrazolo [3,4-b]pyridin-7-yl)methanone]
–	4250	48	Cn1ncc2c1N(C(=O)c1cc(Br)c(O)c(Br)c1)CC1(CC1)O2 [Example 16, (3,5-dibromo-4-hydroxyphenyl)(1′-methyl-1′H-spiro[cyclopropane-1,5′-pyrazolo[4,3-b][1,4]oxazin]-7′(6′H)-yl) methanone]
297	–	–	Cn1ncc2c1OCCN2C(=O)c1cc(Br)c(O)c(Br)c1 [Example 21, (3,5-dibromo-4-hydroxyphenyl)(1-methyl-5,6-dihydropyrazolo[3,4-b][1,4]oxazin-4(1H)-yl)methanone]
